From paper PMC9820316, “Novel Arylpiperazine Derivatives of Salicylamide with α1-Adrenolytic Properties Showed Antiarrhythmic and Hypotensive Properties in Rats” (International Journal of Molecular Sciences, 2022)

Key:
[1] = system: calcium chloride-induced arrhythmia model in rats; assay: Prophylactic antiarrhythmic activity in calcium chloride-induced arrhythmia; assay type: in vivo, rat; details: 5 mg/kg iv 15 min before calcium chloride 140 mg/kg; number of animals with event
Experimental: (§1) The animals were anesthetized with thiopental (75 mg/kg ip). Depending on the model, either adrenaline, aconitine, or calcium chloride was used as an arrhythmogen. Adrenaline and aconitine were administered iv at a dose of 20 µg/kg, whereas calcium chloride was administered at a dose of 140 mg/kg to induce heart rhythm disturbances. The tested compounds were injected iv 15 min before the arrhythmogen. Aspel ASCARD apparatus (standard II lead, with the tape speed 50 mm/s and voltage calibration 1 mV = 1 cm) was used for ECG measurements. […] The ED50 was calculated using the method of Litchfield and Wilcoxon.

[2] = system: adrenaline-induced arrhythmia model in rats; assay: Prophylactic antiarrhythmic activity in adrenaline-induced arrhythmia; assay type: in vivo, rat; details: for Blocks / Bradycardia / Extrasystoles / Mortality: number of animals with event; for ED50: prophylactic, iv 15 min before adrenaline 20 μg/kg, confidence limits in brackets (Litchfield and Wilcoxon)
Experimental: as §1

[3] = system: aconitine-induced arrhythmia model in rats; assay: Prophylactic antiarrhythmic activity in aconitine-induced arrhythmia; assay type: in vivo, rat; details: 5 mg/kg iv 15 min before aconitine 20 μg/kg; number of animals with event
Experimental: as §1

[4] = target: α2-adrenergic receptors; assay: α2-adrenoceptor radioligand binding assay ([3H]-clonidine, rat cortex); details: rat cortex tissue, mean ± SEM, n.a. = did not bind at 10^−5 M
Experimental: The α1- and α2-adrenoceptor radioligand binding assays were performed on the rat cerebral cortex using previously described methods. […] The brains were homogenized using the ULTRA-TURRAX homogenizer in 10 mL of an ice-cold 50 mM Tris-HCl buffer (pH 7.6). The homogenates were centrifuged at 20,000× g for 20 min (0–4 °C). Subsequently, the cell pellet was resuspended in the Tris–HCl buffer and centrifuged again. Radioligand binding assays were carried out in plates (MultiScreen/Millipore). The final incubation mixture, with a volume of 300 μL, consisted of 240 μL of the tissue suspension, 30 μL of the radioligand solution, and 30 μL of the buffer containing 7–8 concentrations of the studied compounds. In order to measure the unspecific binding, 10 μM phentolamine (for [^3H]-prazosin) or 10 μM clonidine (for [^3H]-clonidine) were utilized. The incubation was completed by rapid filtration through Whatman GF/C filters using a vacuum manifold (Millipore). The filters were then washed twice with the assay buffer and placed in scintillation vials with a liquid scintillation cocktail. Radioactivity was measured in a WALLAC 1409 DSA liquid scintillation counter (Perkin Elmer, USA). All the assays were performed in duplicates, and the inhibitory constants (Ki) were calculated.

[5] = system: adrenaline-induced arrhythmia model in rats; assay: Therapeutic antiarrhythmic activity in adrenaline-induced arrhythmia; details: 5 mg/kg iv immediately after adrenaline 20 µg/kg; number of animals with event
Experimental: The experiments were carried out according to the method described by Szekeres and Papp [71]. The heart rhythm disturbances, such as extrasystoles, conduction blocks, and bradycardia, were induced by iv injection of adrenaline (20 µg/kg) to anesthetized rats (thiopental, 75 mg/kg, ip). […] The Aspel ASCARD apparatus (standard II lead, with a tape of speed 50 mm/s and voltage calibration of 1 mV = 1 cm) was used for the ECG measurements. The ECG was recorded during the first 2 min and in the 5th, 10th, and 15th min after the adrenaline injection (Figure 3B). The lack or decreased amount of extrasystoles, atrioventricular blocks, and bradycardia in the ECG recordings compared to the control group was the criterion of antiarrhythmic activity [72].
Automated ECG waveform analysis was evaluated as described earlier [55], using Eleven Maze software version 0.1 from Eleven Products Sp. z o.o. […] The software, under expert supervision, recognized and classified the heart rhythm irregularities. It also calculated PQ, QRS, QTc, and rate parameters.

[6] = system: normal ECG in rats; assay: Effect on a normal electrocardiogram in rats; assay type: in vivo, rat; details: for HR—heart rate / PQ interval / QRS complex / QTc (Bazzett's formula): mean ± SD; for PQ interval / QRS complex / QTc (Bazzett's formula): in ms (unit assumed)
Experimental: The procedure was performed to exclude the negative effects of the tested compounds on the normal ECG, according to the method described earlier. […] Firstly, animals were anesthetized with thiopental (75 mg/kg ip). […] The influence on PQ, QTc interval, QRS complex, and heart rate was evaluated. The Bazzett’s formula: QTc = QT/√RR was used to calculate QTc. All the studied compounds were administered at a dose of 5 mg/kg.

[7] = system: pressor response to methoxamine in rats; assay: Influence on blood vasopressor response to methoxamine in rats; assay type: in vivo, rat; details: methoxamine 150 μg/kg before and 5 min after compound
Experimental: The experiment was performed to establish the effect of the studied derivatives on the pressor response to methoxamine (150 µg/kg, iv), according to the methods described previously. Normotensive Wistar rats were anesthetized with thiopental (75 mg/kg ip). The right carotid artery was cannulated with a polyethylene tube filled with heparin solution using a Datamax apparatus (Columbus Instruments, Columbus, OH, USA). After a 15-min stabilization period, the pressor response to methoxamine before (control) and 5 min after the administration of the tested compounds was measured (Figure 4B). The tested compounds were administered at the lowest hypotensive dose.

[8] = 0.25 mg/kg iv 15 min before adrenaline 20 μg/kg
[9] = 0.5 mg/kg iv 15 min before adrenaline 20 μg/kg
[10] = 1 mg/kg iv 15 min before adrenaline 20 μg/kg
[11] = 5 mg/kg iv, 0 min (prior to administration)

Cl.NC(=O)c1ccccc1OCCCCCCN1CCN(c2cccc(Cl)c2)CC1 [JJGW03, 2-{6-[4-(3-chlorophenyl)piperazin-1-ylo]hexoxy}benzamide hydrochloride]
Blocks [1]: 6/6 | Bradycardia [1]: 6/6 | Extrasystoles [1]: 6/6 | Fibrillations [1]: 4/6 | Mortality [1]: 5/6 | Blocks [2, 8]: 5/5 | Bradycardia [2, 8]: 5/5 | Extrasystoles [2, 8]: 5/5 | Mortality [2, 8]: 4/5 | Blocks [2, 9]: 5/5 | Bradycardia [2, 9]: 4/5 | Extrasystoles [2, 9]: 4/5 | Mortality [2, 9]: 4/5 | Blocks [2, 10]: 4/5 | Bradycardia [2, 10]: 1/5 | Extrasystoles [2, 10]: 4/5 | Mortality [2, 10]: 0/5 | ED50 [2]: 0.36 (0.08–1.56) mg/kg | Blocks [3]: 6/6 | Bradycardia [3]: 6/6 | Extrasystoles [3]: 6/6 | Fibrillations [3]: 6/6 | Mortality [3]: 6/6 | Adrenergic Receptors—pKi α2 [4]: 5.76 ± 0.02 | Blocks [5]: 3/5 | Bradycardia [5]: 1/5 | Mortality [5]: 0/5 | effect on the heart rate during the ECG recording ([6]; 5 mg/kg iv): did not affect the heart rate | HR—heart rate [6, 11]: 286.6 ± 45.7 | PQ interval [6, 11]: 41.6 ± 2.3 | QRS complex [6, 11]: 39.6 ± 4.7 | QTc (Bazzett's formula) [6, 11]: 177.6 ± 12.0 | HR—heart rate ([6]; 5 mg/kg iv, 5 min): 289.1 ± 20.2 | PQ interval ([6]; 5 mg/kg iv, 5 min): 41.4 ± 1.6 | QRS complex ([6]; 5 mg/kg iv, 5 min): 39.3 ± 3.9 | QTc (Bazzett's formula) ([6]; 5 mg/kg iv, 5 min): 188.7 ± 16.3 | HR—heart rate ([6]; 5 mg/kg iv, 10 min): 279.9 ± 15.7 | PQ interval ([6]; 5 mg/kg iv, 10 min): 40.2 ± 1.7 | QRS complex ([6]; 5 mg/kg iv, 10 min): 40.8 ± 7.1 | QTc (Bazzett's formula) ([6]; 5 mg/kg iv, 10 min): 174.8 ± 7.3 | HR—heart rate ([6]; 5 mg/kg iv, 15 min): 271.9 ± 18.2 | PQ interval ([6]; 5 mg/kg iv, 15 min): 40.0 ± 0.5 | QRS complex ([6]; 5 mg/kg iv, 15 min): 40.4 ± 5.2 | QTc (Bazzett's formula) ([6]; 5 mg/kg iv, 15 min): 178.1 ± 15.0 | attenuation of the methoxamine pressor response ([7]; 5 mg/kg iv): 99%

Cl.NC(=O)c1ccccc1OCCCCCN1CCN(c2cccc(Cl)c2)CC1 [JJGW02, 2-{5-[4-(3-chlorophenyl)piperazin-1-ylo]pentoxy}benzamide hydrochloride]
Blocks [1]: 5/6 | Bradycardia [1]: 6/6 | Extrasystoles [1]: 5/6 | Fibrillations [1]: 4/6 | Mortality [1]: 6/6 | Blocks [2, 8]: 5/6 | Bradycardia [2, 8]: 5/6 | Extrasystoles [2, 8]: 5/6 | Mortality [2, 8]: 3/6 | Blocks [2, 9]: 6/6 | Bradycardia [2, 9]: 5/6 | Extrasystoles [2, 9]: 5/6 | Mortality [2, 9]: 0/6 | Blocks [2, 10]: 5/6 | Bradycardia [2, 10]: 4/6 | Extrasystoles [2, 10]: 5/6 | Mortality [2, 10]: 1/6 | ED50 [2]: 0.45 (0.11–1.77) mg/kg | Blocks [3]: 6/6 | Bradycardia [3]: 6/6 | Extrasystoles [3]: 6/6 | Fibrillations [3]: 6/6 | Mortality [3]: 6/6 | Adrenergic Receptors—pKi α2 [4]: 6.20 ± 0.02 | Blocks [5]: 1/6 | Bradycardia [5]: 2/6 | Mortality [5]: 1/6 | dose affecting the heart rate relative to the ED50 value in the adrenaline-induced arrhythmia model ([6]; 5 mg/kg iv vs ED50): 11 fold | HR—heart rate [6, 11]: 311.1 ± 24.4 | PQ interval [6, 11]: 42.6 ± 2.0 | QRS complex [6, 11]: 36.0 ± 1.1 | QTc (Bazzett's formula) [6, 11]: 183.3 ± 7.1 | decrease of the heart rate ([6]; 5 mg/kg iv, 5th min after the injection): 10% | decrease of the heart rate ([6]; 5 mg/kg iv, 10th min after the injection): 15% | decrease of the heart rate ([6]; 5 mg/kg iv, 15th min after the injection): 16% | HR—heart rate ([6]; 5 mg/kg iv, 5 min): 278.7 ± 37.0 | PQ interval ([6]; 5 mg/kg iv, 5 min): 41.7 ± 1.8 | QRS complex ([6]; 5 mg/kg iv, 5 min): 35.2 ± 1.2 | QTc (Bazzett's formula) ([6]; 5 mg/kg iv, 5 min): 175.4 ± 14.0 | HR—heart rate ([6]; 5 mg/kg iv, 10 min): 265.0 ± 30.1 | PQ interval ([6]; 5 mg/kg iv, 10 min): 42.2 ± 1.6 | QRS complex ([6]; 5 mg/kg iv, 10 min): 36.1 ± 1.8 | QTc (Bazzett's formula) ([6]; 5 mg/kg iv, 10 min): 173.2 ± 15.7 | HR—heart rate ([6]; 5 mg/kg iv, 15 min): 262.0 ± 37.3 | PQ interval ([6]; 5 mg/kg iv, 15 min): 44.8 ± 5.9 | QRS complex ([6]; 5 mg/kg iv, 15 min): 35.2 ± 0.7 | QTc (Bazzett's formula) ([6]; 5 mg/kg iv, 15 min): 175.1 ± 16.0 | attenuation of the methoxamine pressor response ([7]; 2.5 mg/kg iv): 100%
